The test system of the first series is Caco-2. Conditions: human, Caco-2, 2 h.
On to `CCCc1nc2c(C)cc(-c3nc4ccccc4n3C)cc2n1Cc1ccc(-c2ccccc2C(=O)O)cc1`, for which the logPapp is recorded as -4.82.

In turn, `Cc1ccc(/C(=C\CN2CCCC2)c2cccc(/C=C/C(=O)O)n2)cc1` [ACRIVASTINE] gave a logPapp of -5.72.

With `CC1(C)S[C@@H]2[C@H](NC(=O)[C@H](N)c3ccc(O)cc3)C(=O)N2[C@H]1C(=O)O` [AMOXICILLIN], the permeability result was “permeable”.

Take `Cc1cc(=O)n(-c2ccccc2)n1C` [ANTIPYRINE]: the permeability result is listed as “permeable”.

For `NC(=O)N1c2ccccc2C=Cc2ccccc21` [CARBAMAZEPINE], the logPapp is recorded as -5.3 and the permeability entry is “permeable”.

`CN/C(=N/CCSCc1nc[nH]c1C)NC#N` [CIMETIDINE] came in with a logPapp of -5.88.

On to `Clc1cccc(Cl)c1N=C1NCCN1` [CLONIDINE], for which the logPapp is -4.66.

The compound `NCCc1ccc(O)c(O)c1` [DOPAMINE] came in with a logPapp of -5.03.

`CNC[C@H](O)c1ccc(O)c(O)c1` [EPINEPHRINE] came in with a logPapp of -6.02.

Regarding `CC(C)n1c(/C=C/C(O)CC(O)CC(=O)O)c(-c2ccc(F)cc2)c2ccccc21` (centres undefined) [FLUVASTATIN], the permeability result is “permeable”.

Take `CC(C(=O)O)c1cccc(C(=O)c2ccccc2)c1` (centres undefined) [KETOPROFEN]: the permeability result is on record as “permeable”.

With `OC[C@@H](O)[C@@H](O)[C@H](O)[C@H](O)CO` [MANNITOL], the permeability entry is on record as “permeable”.

With `C[C@](N)(Cc1ccc(O)c(O)c1)C(=O)O` [METHYLDOPA], the permeability entry is given as “permeable”.

Take `COCCc1ccc(OCC(O)CNC(C)C)cc1` (centres undefined) [METOPROLOL]: the permeability result is given as “permeable”.

On to `CC#Cc1cn([C@@H]2O[C@H](CO)[C@@H](O)[C@@H]2O)c(=O)[nH]c1=O` [NETIVUDINE], for which the logPapp is on record as -6.17.

Regarding `CN1CCC[C@H]1c1cccnc1` [NICOTINE], the logPapp was -4.58.

For the compound `C=CCOc1ccccc1OCC(O)CNC(C)C` (centres undefined) [OXPRENOLOL], the logPapp was -4.21.

With `CC1(C)S[C@@H]2[C@H](NC(=O)Cc3ccccc3)C(=O)N2[C@H]1C(=O)O` [PENICILLIN G], the logPapp was -6.11.

Compound `c1ccc(C2(N3CCCCC3)CCCCC2)cc1` [PHENCYCLIDINE] displayed a logPapp of -4.61.

On to `CC(C)NCC(O)COc1cccc2[nH]ccc12` (centres undefined) [PINDOLOL], for which the logPapp is -4.41.

Consider `CC(C(=O)O)c1ccc2c(c1)Cc1cccnc1O2` (centres undefined) [PRANOPROFEN], for which the logPapp is given as -4.39.

In the case of `CC(=O)[C@H]1CC[C@H]2[C@@H]3CCC4=CC(=O)CC[C@]4(C)[C@H]3CC[C@]12C` [PROGESTERONE], the logPapp is listed as -4.55.

With `CNC(=C[N+](=O)[O-])NCCSCc1ccc(CN(C)C)o1` [RANITIDINE], the logPapp is -6.2 and the permeability entry was “permeable”.

Compound `O=C(O)c1cc(/N=N/c2ccc(S(=O)(=O)Nc3ccccn3)cc2)ccc1O` [SULFASALAZINE] came in with a logPapp of -6.61.

`C[C@H](CCC(=O)NCCS(=O)(=O)O)[C@H]1CC[C@H]2[C@@H]3[C@H](O)C[C@@H]4C[C@H](O)CC[C@]4(C)[C@H]3C[C@H](O)[C@]12C` [TAUROCHOLIC ACID]: the logPapp is -4.46.

Take `Cn1c(=O)c2[nH]cnc2n(C)c1=O.O` [THEOPHYLLINE]: the logPapp is -4.4 and the permeability entry is “permeable”.

As to `CC(C(=O)O)c1ccc(C(=O)c2ccccc2)s1` (centres undefined) [TIAPROFENIC ACID], the logPapp is -4.41.

The compound `CC(C)(C)NC[C@H](O)COc1nsnc1N1CCOCC1` [TIMOLOL] had a logPapp of -4.43.

In turn, `CNC(=NCCSCc1csc(N=C(N)N)n1)NC#N` [TIOTIDINE] returned a logPapp of -5.66.

The compound `N[C@@H]1[C@H]2CN(c3nc4c(cc3F)c(=O)c(C(=O)O)cn4-c3ccc(F)cc3F)C[C@@H]12` [TROVAFLOXACIN] came in with a logPapp of -4.52.

A further series relates to Caco-2. Conditions: human, Caco-2, 2 h. The source holds these as a separate data set.
Consider `CCOC(=O)[C@H](CCc1ccccc1)N[C@@H](C)C(=O)N1CCC[C@H]1C(=O)O`, for which the logPapp is listed as -6.1.

`CC[C@H](C)C(=O)O[C@H]1C[C@H](O)C=C2C=C[C@H](C)[C@H](CC[C@@H](O)C[C@@H](O)CC(=O)O)[C@H]21` [PRAVASTATIN] returned a logPapp of -6.56.

With `CC(C)[C@H](N)C(=O)OCCOCn1cnc2c(=O)[nH]c(N)nc21` [VALACYCLOVIR], the logPapp is -6.52.

In a further series the test system is Caco-2. As to conditions: human.
Turning to `CCOC(=O)[C@H](CCc1ccccc1)N[C@@H](C)C(=O)N1CCC[C@H]1C(=O)O`, the logPapp is on record as -5.7.

On to `CC[C@H](C)C(=O)O[C@H]1C[C@H](O)C=C2C=C[C@H](C)[C@H](CC[C@@H](O)C[C@@H](O)CC(=O)O)[C@H]21` [PRAVASTATIN], for which the logPapp is reported as -5.64.

Turning to `CC(C)[C@H](N)C(=O)OCCOCn1cnc2c(=O)[nH]c(N)nc21` [VALACYCLOVIR], the logPapp is recorded as -6.3.

Values taken from ChEMBL document CHEMBL1764994, “QSAR-based permeability model for drug-like compounds” (Bioorg Med Chem, 2011).
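Wherever permeability is given: apparent permeability through Caco-2 cell membranes, with the permeated amount quantified by LC-MS/MS.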
